Results from US7468391B2, “Methods for treating retinoid responsive disorders using selective inhibitors of CYP26A and CYP26B” (Allergan, Inc., priority 2003, dated 2008).

Assays:
CYP26B (P450RAI-2) = target: T1, CYP26B (P450RAI-2) (Homo sapiens, UniProt Q9NR63); test: Cell-based inhibition of RA metabolism in CYP26B stably transfected HeLa cells; details: for IC50: Table 3, stably transfected HeLa cells, [3H]-RA, 3 hours at 37° C., read-out: CYP26B Intact cells IC50
T1 construct: expressed in transfected cells; host or cells: HeLa
T1 sequence (Q9NR63 1-512): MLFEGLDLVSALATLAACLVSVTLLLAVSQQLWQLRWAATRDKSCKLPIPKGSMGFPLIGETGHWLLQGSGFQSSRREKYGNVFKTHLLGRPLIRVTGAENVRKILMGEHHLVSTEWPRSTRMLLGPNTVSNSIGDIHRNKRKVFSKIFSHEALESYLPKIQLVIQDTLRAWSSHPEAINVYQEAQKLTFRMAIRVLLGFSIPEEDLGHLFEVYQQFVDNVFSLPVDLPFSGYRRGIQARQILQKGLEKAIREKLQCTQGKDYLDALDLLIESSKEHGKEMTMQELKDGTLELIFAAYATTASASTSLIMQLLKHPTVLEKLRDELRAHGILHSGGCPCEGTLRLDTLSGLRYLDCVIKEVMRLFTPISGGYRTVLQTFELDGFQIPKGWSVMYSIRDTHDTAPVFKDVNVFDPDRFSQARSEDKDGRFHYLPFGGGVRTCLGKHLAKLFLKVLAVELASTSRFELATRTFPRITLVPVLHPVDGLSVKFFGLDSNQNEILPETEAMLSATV
In short: (§1)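 Stably transfected HeLa cells (5×10^5/well) in MEM with 10% FBS and 0.05 μCi [3H]-RA, compounds at 10, 1 or 0.1 μM final, 3 h at 37° C. Retinoids extracted by modified Bligh-Dyer (methylene chloride); aqueous radioactivity counted; ID50 for 50% inhibition of RA metabolism derived from log-transformed data.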

CYP26A (P450RAI-1) = target: T2, CYP26A (P450RAI-1) (Homo sapiens, UniProt O43174); test: Cell-based inhibition of RA metabolism in CYP26A stably transfected HeLa cells; details: for IC50: Table 3, stably transfected HeLa cells, [3H]-RA, 3 hours at 37° C., read-out: CYP26A Intact cells IC50
T2 construct: expressed in transfected cells; host or cells: HeLa
T2 sequence (O43174 1-497): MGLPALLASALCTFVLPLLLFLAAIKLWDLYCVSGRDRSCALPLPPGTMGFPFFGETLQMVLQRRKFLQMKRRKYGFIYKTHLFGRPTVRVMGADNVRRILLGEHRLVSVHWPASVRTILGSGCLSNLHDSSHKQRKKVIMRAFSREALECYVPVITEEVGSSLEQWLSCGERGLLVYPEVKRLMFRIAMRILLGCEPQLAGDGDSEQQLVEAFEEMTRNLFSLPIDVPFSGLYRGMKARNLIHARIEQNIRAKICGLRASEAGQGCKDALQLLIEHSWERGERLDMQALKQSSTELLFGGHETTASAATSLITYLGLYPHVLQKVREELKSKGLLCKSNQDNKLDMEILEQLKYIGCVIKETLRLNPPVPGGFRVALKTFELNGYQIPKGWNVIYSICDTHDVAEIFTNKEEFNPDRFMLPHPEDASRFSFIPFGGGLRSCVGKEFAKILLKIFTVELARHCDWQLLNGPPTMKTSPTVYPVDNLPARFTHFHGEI
In short: as §1

Compound	IC50 (CYP26B (P450RAI-2))	IC50 (CYP26A (P450RAI-1))	selectivity for CYP26A relative to CYP26B (CYP26A (P450RAI-1); ratio of ID50 values)	selectivity for CYP26B relative to CYP26A (CYP26B (P450RAI-2); ratio of ID50 values)
CN(C1CC1)C1CCC(C)(C)c2cc(C#Cc3ccc(C(C)(C)C(=O)O)cc3)ccc21 (stereo not drawn) [AGN 198790]	> 10 µM	0.6 µM	at least 10 fold	–
CN(Cc1cccc(C#Cc2ccc(/C=C/C(=O)O)cc2)c1)C1CC1 [AGN 199713]	0.6 µM	> 10 µM	–	at least 10 fold
